Measurements as given in patent US9115073B2, “1,3-diphenylpropane derivatives, preparations and uses thereof” (GENFIT, priority 2011, dated 2015).

Columns and labels:
Format in all cases: cell-based
[1] = target: T1, hPPARalpha (Homo sapiens, UniProt Q07869); test: Gal4-hPPARalpha transactivation assay in COS-7 cells (luciferase); details: for Gal4-hPPARα(LBD) TOP (% ref): maximal relative activation vs reference; for Emax: COS-7, maximal relative activation vs reference, read-out: Gal4-hPPARα(LBD) TOP (% ref); for EC50: Gal4-hPPARα(LBD) transactivation
T1 construct: Gal4-hPPARα(LBD); Gal4 (fusion partner); expressed in transfected cells; host or cells: COS-7 (monkey kidney)
T1 sequence (Q07869 239-466 limits assumed): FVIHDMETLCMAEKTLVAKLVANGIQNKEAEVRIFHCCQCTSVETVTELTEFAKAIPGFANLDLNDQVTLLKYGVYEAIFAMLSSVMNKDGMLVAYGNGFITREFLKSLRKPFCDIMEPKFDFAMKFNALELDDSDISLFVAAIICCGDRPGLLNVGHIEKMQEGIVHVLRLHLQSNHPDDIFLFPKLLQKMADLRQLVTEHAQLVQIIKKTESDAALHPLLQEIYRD
Experimental: (§1) Monkey kidney COS-7 cells were maintained in standard culture conditions (Dulbecco's modified Eagle's minimal medium: DMEM) supplemented with 10% fetal calf serum, 1% sodium pyruvate, 1% essential amino acids and 1% antibiotics at 37° C. in a humidified atmosphere of 5% C02 and 95% air. The medium was changed every 2 days. All tested compounds were dissolved in DMSO. Cells were transfected using 2 μl JetPEI™ (Polyplus transfection)/μg of DNA. Briefly, 40 μg of DNA was transfected in a 225 cm^2 culture flask of adherent COS-7 cells (respecting the 1/50 ratio between the Gal4(RE)_TkpGL3 plasmid and the plasmid coding the nuclear receptor of interest (pGal4-hPPARalpha, pGal4-hPPARgamma, pGal4-hPPARdelta, pGal4-mPPARalpha, pGal4-mPPARgamma and pGal4-mPPARdelta) or of the pGal4phi plasmid (negative control). Cells were enzymatically detached and seeded in 384 well plates at the density of 20,000 cells/well and then incubated for 4 hours at 37° C. The activation was automatically performed, by using the Genesis Freedom 200™ (Tecan), in fresh medium supplemented with 2% of synthetic serum, free of lipids (Ultroser™, Biosepra) supplemented with the tested compounds (compound of interest or reference molecules) or vehicle (DMSO 0.1%). The luciferase activity was measured with the Steady-Glo Luciferase Assay System (Promega, Madison, Wis.). All transactivation experiments were performed at least 2 times. Activation curves were realized using SigmaPlot® (version 7.0 from SPSS Inc.) software and took into account all the experimental points. SimgaPlot® was also used to fit the standard curves and then determine the specific EC50 values, maximum effect versus reference molecules and Hill slope. The Emax effect of each new ligand is represented as the ratio of the maximal induction (plateau) obtained with the new ligand and the induction obtained with the corresponding reference compound. The reference compounds for PPARalpha, PPARgamma and PPARdelta were fenofibrate (100 μM), rosiglitazone (10 μM) and GW501516 (1 μM).

[2] = target: T2, hPPARgamma (Homo sapiens, UniProt P37231); test: Gal4-hPPARgamma transactivation assay in COS-7 cells (luciferase); details: for Gal4-hPPARγ(LBD) TOP (% ref): maximal relative activation vs reference; for Emax: COS-7, maximal relative activation vs reference, read-out: Gal4-hPPARγ(LBD) TOP (% ref); for EC50: Gal4-hPPARγ(LBD) transactivation
T2 construct: Gal4-hPPARγ(LBD); Gal4 (fusion partner); expressed in transfected cells; host or cells: COS-7 (monkey kidney)
T2 sequence (P37231 238-503 limits assumed): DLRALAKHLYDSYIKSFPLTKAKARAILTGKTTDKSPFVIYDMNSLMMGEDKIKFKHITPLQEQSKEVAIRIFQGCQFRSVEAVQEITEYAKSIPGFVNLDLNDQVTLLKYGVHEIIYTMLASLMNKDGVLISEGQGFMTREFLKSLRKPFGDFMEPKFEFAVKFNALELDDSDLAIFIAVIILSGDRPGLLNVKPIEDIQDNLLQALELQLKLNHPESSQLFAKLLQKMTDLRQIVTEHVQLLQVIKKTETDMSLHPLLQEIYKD
Experimental: as §1

[3] = target: T3, hPPARdelta (Homo sapiens, UniProt Q03181); test: Gal4-hPPARdelta transactivation assay in COS-7 cells (luciferase); details: for Gal4-hPPARδ(LBD) TOP (% ref): maximal relative activation vs reference; for Emax: COS-7, maximal relative activation vs reference, read-out: Gal4-hPPARδ(LBD) TOP (% ref); for EC50: Gal4-hPPARδ(LBD) transactivation
T3 construct: Gal4-hPPARδ(LBD); Gal4 (fusion partner); expressed in transfected cells; host or cells: COS-7 (monkey kidney)
T3 sequence (Q03181 211-439 limits assumed): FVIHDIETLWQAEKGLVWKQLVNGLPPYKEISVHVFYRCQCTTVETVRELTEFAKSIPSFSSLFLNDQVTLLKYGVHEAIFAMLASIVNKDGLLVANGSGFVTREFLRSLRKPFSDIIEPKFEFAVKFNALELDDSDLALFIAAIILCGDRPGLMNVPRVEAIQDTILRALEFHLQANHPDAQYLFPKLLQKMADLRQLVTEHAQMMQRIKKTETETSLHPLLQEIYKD
Experimental: as §1

Row | Compound | Gal4-hPPARα(LBD) TOP (% ref) [1] [% ref] | Gal4-hPPARγ(LBD) TOP (% ref) [2] [% ref] | Gal4-hPPARδ(LBD) TOP (% ref) [3] [% ref] | Emax [1] [%] | EC50 [1] [nM] | Emax [2] [%] | EC50 [2] [nM] | Emax [3] [%] | EC50 [3] [nM]
1 | COC(c1ccc(OC(F)(F)F)cc1)C1CC1c1ccc(OC(C)(C)C(=O)O)c(C(C)C)c1 (racemic) [Cpd 15-2, 2-(2-isopropyl-4-(2-(methoxy(4-(trifluoromethoxy)phenyl)methyl)cyclopropyl)phenoxy)-2-methylpropanoic acid] | 31 | 69 | 96 |  |  |  |  |  | 
2 | COC(c1ccc(C(F)(F)F)cc1C(F)(F)F)C1CC1c1cc(C)c(OC(C)(C)C(=O)O)c(C)c1 (racemic) [Cpd 16-2, 2-(4-(2-((2,4-bis(trifluoromethyl)phenyl)(methoxy)methyl)cyclopropyl)-2,6-dimethylphenoxy)-2-methylpropanoic acid] | 50 | 88 | 71 |  |  |  |  |  | 
3 | COc1cc(OC(F)(F)F)ccc1C(OC)C1CC1c1cc(C)c(OC(C)(C)C(=O)O)c(C)c1 (racemic) [Cpd 17-1, 2-(4-(2-(methoxy(2-methoxy-4-(trifluoromethoxy)phenyl)methyl)cyclopropyl)-2,6-dimethylphenoxy)-2-methylpropanoic acid] |  |  |  | 49 | 38 | 75 | 12 | 86 | 6
4 | CCCCCCOc1ccccc1C(OC)C1CC1c1cc(C)c(OC(C)(C)C(=O)O)c(C)c1 (racemic) [Cpd 18-1, 2-(4-(2-((2-(hexyloxy)phenyl)(methoxy)methyl)cyclopropyl)-2,6-dimethylphenoxy)-2-methylpropanoic acid] |  |  |  | 44 | 59 | 84 | 26 | 78 | 157
5 | COC(c1ccc(OC(F)(F)F)cc1)C1CC1c1ccc(OC(C)(C)C(=O)O)c(Br)c1 (racemic) [Cpd 19-1, 2-(2-bromo-4-(2-(methoxy(4-(trifluoromethoxy)phenyl)methyl)cyclopropyl)phenoxy)-2-methylpropanoic acid] |  |  |  | 53 | 157 | 64 | 97 | 100 | 26
6 | COC(c1ccc(OC(F)(F)F)cc1)C1CC1c1cc(F)c(OC(C)(C)C(=O)O)c(F)c1 (racemic) [Cpd 20-1, 2-(2,6-difluoro-4-(2-(methoxy(4-(trifluoromethoxy)phenyl)methyl)cyclopropyl)phenoxy)-2-methylpropanoic acid] |  |  |  | 50 | 143 | 67 | 230 | 84 | 87
7 | COC(c1ccc(OC(F)(F)F)cc1)C1CC1c1ccc(OC(C)(C)C(=O)O)c(C2CC2)c1 (racemic) [Cpd 21-1, 2-(2-cyclopropyl-4-(2-(methoxy(4-(trifluoromethoxy)phenyl)methyl)cyclopropyl)phenoxy)-2-methylpropanoic acid] |  |  |  | 17 | 3650 | 48 | 828 | 88 | 3270
8 | COC(c1ccc(SC)cc1)C1CC1c1cc(C)c(OC(C)(C)C(=O)O)c(C)c1 (single isomer, unassigned) [Cpd 3-1, 2-(4-(2-(methoxy(4-(methylthio)phenyl)methyl)cyclopropyl)-2,6-dimethylphenoxy)-2-methylpropanoic acid] |  |  |  | 57 | 105 | 79 | 35 | 77 | 54
9 | COC(c1ccc(SC)cc1)C1CC1c1cc(C)c(OC(C)(C)C(=O)O)c(C)c1 (single isomer, unassigned) [Cpd 3-2, 2-(4-(2-(methoxy(4-(methylthio)phenyl)methyl)cyclopropyl)-2,6-dimethylphenoxy)-2-methylpropanoic acid] |  |  |  |  | 139 |  | 18 |  | 169
10 | CCCCOC(c1ccc(OC(F)(F)F)cc1)C1CC1c1cc(C)c(OC(C)(C)C(=O)O)c(C)c1 (single isomer, unassigned) [Cpd 5-1, 2-(4-(2-(butyloxy(4-(trifluoromethoxy)phenyl)methyl)cyclopropyl)-2,6-dimethylphenoxy)-2-methylpropanoic acid] |  |  |  | 44 | 47 | 84 | 143 | 62 | 34
11 | CCCCOC(c1ccc(OC(F)(F)F)cc1)C1CC1c1cc(C)c(OC(C)(C)C(=O)O)c(C)c1 (single isomer, unassigned) [Cpd 5-2, 2-(4-(2-(butyloxy(4-(trifluoromethoxy)phenyl)methyl)cyclopropyl)-2,6-dimethylphenoxy)-2-methylpropanoic acid] |  |  |  |  | 54 |  | 21 |  | 57
12 | Cc1cc(C2CC2C(OCc2ccccc2)c2ccc(OC(F)(F)F)cc2)cc(C)c1OC(C)(C)C(=O)O (single isomer, unassigned) [Cpd 11-1, 2-(4-(2-(benzyloxy(4-(trifluoromethoxy)phenyl)methyl)cyclopropyl)-2,6-dimethylphenoxy)-2-methylpropanoic acid] |  |  |  | 46 | 21 | 86 | 116 | 75 | 79
13 | Cc1cc(C2CC2C(OCc2ccccc2)c2ccc(OC(F)(F)F)cc2)cc(C)c1OC(C)(C)C(=O)O (single isomer, unassigned) [Cpd 11-2, 2-(4-(2-(benzyloxy(4-(trifluoromethoxy)phenyl)methyl)cyclopropyl)-2,6-dimethylphenoxy)-2-methylpropanoic acid] |  |  |  |  | 100 |  | 23 |  | 122
14 | COC(c1ccc(C(F)(F)F)cc1F)C1CC1c1cc(C)c(OC(C)(C)C(=O)O)c(C)c1 (single isomer, unassigned) [Cpd 12-1, 2-(4-(2-(methoxy(2-fluoro-4-(trifluoromethyl)phenyl)methyl)cyclopropyl)-2,6-dimethylphenoxy)-2-methylpropanoic acid] |  |  |  | 47 | 53 | 71 | 12 | 89 | 7
15 | COC(c1ccc(C(F)(F)F)cc1F)C1CC1c1cc(C)c(OC(C)(C)C(=O)O)c(C)c1 (single isomer, unassigned) [Cpd 12-2, 2-(4-(2-(methoxy(2-fluoro-4-(trifluoromethyl)phenyl)methyl)cyclopropyl)-2,6-dimethylphenoxy)-2-methylpropanoic acid] |  |  |  |  | 90 |  | 3 |  | 13
16 | COC(c1ccccc1OC(F)(F)F)C1CC1c1cc(C)c(OC(C)(C)C(=O)O)c(C)c1 (single isomer, unassigned) [Cpd 13-1, 2-(4-(2-(methoxy(2-(trifluoromethyloxy)phenyl)methyl)cyclopropyl)-2,6-dimethylphenoxy)-2-methylpropanoic acid] |  |  |  | 26 | 652 | 72 | 72 | 59 | 328
